Experiment: xn = mol fraction of the nth substance listed
Conditions: 101 kPa, Liquid

CCCCCCCC[n+]1ccn(C)c1.F[P-](F)(F)(F)(F)F [1-octyl-3-methylimidazolium hexafluorophosphate] + CCCCOC(C)=O
Conditions	mass density [kg/m3]	speed of sound [m/s]
293.15 K, x1 = 0.1078	957.599	1231.1
293.15 K, x1 = 0.2016	1010.44	1251
293.15 K, x1 = 0.3056	1058.02	1273.2
293.15 K, x1 = 0.3855	1088.56	1291.6
293.15 K, x1 = 0.4815	1119.98	1309.4
293.15 K, x1 = 0.5918	1150.6	1328.2
293.15 K, x1 = 0.6857	1173.18	1343.6
293.15 K, x1 = 0.7784	1193.01	1358.4
293.15 K, x1 = 0.8946	1215.11	1375.1
293.15 K, x1 = 1	1222.81	1388.2
298.15 K, x1 = 0.1078	953.226	1211.6
298.15 K, x1 = 0.2016	1006.23	1232.7
298.15 K, x1 = 0.3056	1053.87	1256.9
298.15 K, x1 = 0.3855	1084.42	1275
298.15 K, x1 = 0.4815	1115.96	1293.4
298.15 K, x1 = 0.5918	1146.75	1313.3
298.15 K, x1 = 0.6857	1169.44	1328.8
298.15 K, x1 = 0.7784	1189.32	1343.7
298.15 K, x1 = 0.8946	1211.35	1361.6
298.15 K, x1 = 1	1218.9	1373.4
303.15 K, x1 = 0.1078	948.745	1192.2
303.15 K, x1 = 0.2016	1001.93	1214.5
303.15 K, x1 = 0.3056	1049.62	1239.7
303.15 K, x1 = 0.3855	1080.26	1258.8
303.15 K, x1 = 0.4815	1111.97	1278.6
303.15 K, x1 = 0.5918	1142.89	1298.6
303.15 K, x1 = 0.6857	1165.73	1314.7
303.15 K, x1 = 0.7784	1185.68	1329.6
303.15 K, x1 = 0.8946	1207.65	1347.1
303.15 K, x1 = 1	1214.96	1359.3
308.15 K, x1 = 0.1078	944.257	1172.8
308.15 K, x1 = 0.2016	997.643	1196.4
308.15 K, x1 = 0.3056	1045.4	1222.6
308.15 K, x1 = 0.3855	1076.13	1242.8
308.15 K, x1 = 0.4815	1107.98	1263.5
308.15 K, x1 = 0.5918	1139.12	1284
308.15 K, x1 = 0.6857	1162.11	1300.8
308.15 K, x1 = 0.7784	1182.13	1315.8
308.15 K, x1 = 0.8946	1204.03	1333.5
308.15 K, x1 = 1	1211.13	1345.8
313.15 K, x1 = 0.1078	939.644	1153.7
313.15 K, x1 = 0.2016	993.304	1178.5
313.15 K, x1 = 0.3056	1041.23	1205.7
313.15 K, x1 = 0.3855	1072.05	1226.9
313.15 K, x1 = 0.4815	1104.1	1248.4
313.15 K, x1 = 0.5918	1135.23	1269.7
313.15 K, x1 = 0.6857	1158.31	1286.8
313.15 K, x1 = 0.7784	1178.4	1302.1
313.15 K, x1 = 0.8946	1200.3	1322.1
313.15 K, x1 = 1	1207.33	1332.7
318.15 K, x1 = 0.1078	935.027	1134.6
318.15 K, x1 = 0.2016	988.947	1160.7
318.15 K, x1 = 0.3056	1037	1189
318.15 K, x1 = 0.3855	1067.9	1211.2
318.15 K, x1 = 0.4815	1100.12	1233.6
318.15 K, x1 = 0.5918	1131.33	1255.5
318.15 K, x1 = 0.6857	1154.61	1273.1
318.15 K, x1 = 0.7784	1174.85	1288.7
318.15 K, x1 = 0.8946	1196.83	1309.5
318.15 K, x1 = 1	1203.5	1320.1
323.15 K, x1 = 0.1078	930.067	1115.7
323.15 K, x1 = 0.2016	984.404	1143
323.15 K, x1 = 0.3056	1032.8	1172.3
323.15 K, x1 = 0.3855	1063.84	1195.6
323.15 K, x1 = 0.4815	1096.14	1218.8
323.15 K, x1 = 0.5918	1127.43	1241.6
323.15 K, x1 = 0.6857	1150.89	1259.4
323.15 K, x1 = 0.7784	1171.35	1275.5
323.15 K, x1 = 0.8946	1193.45	1296.1
323.15 K, x1 = 1	1199.67	1307.7

— the NIST ThermoML archive (doi:10.1016/j.jct.2014.01.012)
